# According to patent US10537611B2, “Methods of treating lung cancer” (Five Prime Therapeutics, Inc., priority 2011, dated 2020):
# How the values were obtained:
# NCI-H520 cells = experiment: CellTiter-Glo cell number, NCI-H520; format: cell-based, human; details: 15 μg/ml, 4 days, 10%, 1% or 0.1% FBS
# From the text: A panel of lung cancer cell lines displaying potential amplification of the FGFR1 gene was identified using CONAN (http://www.sanger.ac.uk/cgi-bin/genetics/CGP/conan/search.cgi) and Tumorscape (http://www.broadinstitute.org/tumorscape/pages/portalHomejsf). CONAN and Tumorscape represent public data mining tools to extract gene copy number information for predefined or user defined loci across the SNP6.0 dataset of cancer. Lung cancer cell lines DMS53, DMS114, NCI-H1581 and NCI-H520 were identified as having potential amplification of the FGFR1 gene (>4 copies/cell) and were selected for further analysis. Human small cell lung cancer (SCLC) cell lines DMS53 and DMS114 were purchased from ATCC (Manassas, Va.; Cat. No. CRL-2062; Cat. No. CRL-2066, respectfully). The cells were cultured in Waymouth's MB 752/1 medium+10% FBS+2 mM L-glutamine at 37° C. in a humidified atmosphere with 5% CO2. […]
# To determine cell number the CellTiter-Glo® Luminescent Cell Viability Assay (Promega, Madison, Wis.) was employed. CellTiter-Glo® is a homogeneous method of determining the number of viable cells in culture based on quantitation of the ATP present, an indicator of metabolically active cells. […] Luminescence was then determined on an EnVision™ Multilabel Plate Reader (PerkinElmer, Boston, Mass.) with a 0.2 second integration time. Results were expressed as relative light units (RLU)/well.
# [1] = system: lung cancer cell lines without FGFR1 gene amplification; experiment: CellTiter-Glo cell number, non-amplified lung cancer cell lines (average); format: cell-based, human; details: averaged across all FBS concentrations, vs control ECD-Fc
# Protocol: To determine the impact of FGFR1-ECD.339-Fc on lung cancer cell lines in tissue culture, cells were plated in a Microtest™ 96-well tissue culture plate (Becton Dickenson, Franklin Lakes, N.J.) at a density of 5×10^3 cells/well in medium containing 10%, 1% or 0.1% FBS in the presence or absence of 15 μg/ml FGFR1-ECD.339-Fc (SEQ ID NO: 6) or an unrelated ECD-Fc fusion protein (as a negative control). Plates were incubated at 37° C. at 5% CO2 for 4 days and then assayed to determine the impact of FGFR1-ECD.339-Fc on cell number and proliferation.
# To determine cell number the CellTiter-Glo® Luminescent Cell Viability Assay (Promega, Madison, Wis.) was employed. CellTiter-Glo® is a homogeneous method of determining the number of viable cells in culture based on quantitation of the ATP present, an indicator of metabolically active cells. In brief, CellTiter-Glo® Reagent was added to each well of the tissue culture plate at a volume equal to the volume of cell culture medium present in each well (100 μl), the contents mixed for 2 minutes on an orbital shaker to induce cell lysis and then the plate incubated for 10 minutes at room temperature. Luminescence was then determined on an EnVision™ Multilabel Plate Reader (PerkinElmer, Boston, Mass.) with a 0.2 second integration time. Results were expressed as relative light units (RLU)/well. […]
substance,measurement,setting,value
"FGFR1-ECD.339-Fc: human FGFR1 extracellular domain ending at amino acid 339 fused to an Fc; SEQ ID NO: 6 (mature form), SEQ ID NO: 5 with signal peptide",cell number (CellTiter-Glo),NCI-H520 cells,reduced
same,average decrease in cell number (CellTiterGlo RLU),[1],9.33%
